Data: patent US9453062B2, “Glucose dependent insulinotropic polypeptide analogs, pharmaceutical compositions and use thereof” (Beijing Hanmi Pharmaceutical Co., Ltd., priority 2011, dated 2016)
Where a SMILES comes first, the peptide text is derived from it. [ ]: non-standard residue; d: D form. Aib = CC(C)(N)C(=O)O

Assays:
[1] = target: T1, hGLP-1R (Homo sapiens, UniProt P43220); assay: hGLP-1R-mediated cAMP induction assay in CHO cell line; assay type: cell-based; conditions: Table 3; for EC50: CHO hGLP1R cells; for GLP-1 Receptor Relative Potency: against native GLP-1;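 for all read-outs here: CHO cells expressing human GLP-1R, treated 30 min at 37 °C, intracellular cAMP measured by competitive fluorescent immunoassay and converted via a cAMP standard curve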
T1 construct: expressed in transfected cells; host or cells: CHO

[2] = target: T2, hGIPR (Homo sapiens, UniProt P48546); assay: hGIPR-mediated cAMP induction assay in CHO cell line; assay type: cell-based; conditions: Table 3; for EC50: CHO hGIPR cells; for GIP Receptor Relative Potency: against native GIP
T2 construct: expressed in transfected cells; host or cells: CHO
T2 sequence (P48546 22-466): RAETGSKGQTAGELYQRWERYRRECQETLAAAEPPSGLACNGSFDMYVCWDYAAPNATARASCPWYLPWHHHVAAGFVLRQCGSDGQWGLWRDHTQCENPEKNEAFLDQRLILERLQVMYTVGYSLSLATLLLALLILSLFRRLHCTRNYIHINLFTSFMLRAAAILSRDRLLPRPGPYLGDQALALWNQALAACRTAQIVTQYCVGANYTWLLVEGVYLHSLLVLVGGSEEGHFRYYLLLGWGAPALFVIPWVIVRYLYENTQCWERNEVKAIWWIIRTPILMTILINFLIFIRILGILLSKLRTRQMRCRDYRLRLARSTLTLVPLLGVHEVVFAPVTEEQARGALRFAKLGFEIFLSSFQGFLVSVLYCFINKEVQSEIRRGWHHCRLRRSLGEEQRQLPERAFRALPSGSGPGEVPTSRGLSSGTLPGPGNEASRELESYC

T1 sequence (P43220 24-463): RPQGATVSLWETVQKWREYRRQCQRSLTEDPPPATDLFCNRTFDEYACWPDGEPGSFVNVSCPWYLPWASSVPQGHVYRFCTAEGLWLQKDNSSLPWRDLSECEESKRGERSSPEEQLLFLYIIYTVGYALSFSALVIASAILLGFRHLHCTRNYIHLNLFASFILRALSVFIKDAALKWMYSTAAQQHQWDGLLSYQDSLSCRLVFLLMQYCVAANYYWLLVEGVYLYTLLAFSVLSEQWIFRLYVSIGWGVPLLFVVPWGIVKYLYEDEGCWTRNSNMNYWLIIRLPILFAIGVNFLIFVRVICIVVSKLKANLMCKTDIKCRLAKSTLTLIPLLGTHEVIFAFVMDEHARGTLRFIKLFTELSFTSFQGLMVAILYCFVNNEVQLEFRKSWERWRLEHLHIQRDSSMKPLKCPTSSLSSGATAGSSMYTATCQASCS

Structure (SMILES)	EC50 [1] [nM]	EC50 [2] [nM]	GIP Receptor Relative Potency [2]	GLP-1 Receptor Relative Potency [1]
CC[C@H](C)[C@H](NC(=O)[C@H](Cc1ccccc1)NC(=O)[C@H](CCC(=O)O)NC(=O)[C@H](CCCNC(=N)N)NC(=O)[C@@H](NC(=O)[C@H](C)NC(=O)[C@H](CCC(=O)O)NC(=O)[C@H](CCCCN)NC(=O)[C@H](CCC(=O)O)NC(=O)[C@H](CCSC)NC(=O)[C@H](Cc1ccc(O)cc1)NC(=O)[C@H](CCC(=O)O)NC(=O)[C@H](CO)NC(=O)[C@H](Cc1ccc(O)cc1)NC(=O)[C@H](CC(=O)O)NC(=O)[C@H](CO)NC(=O)[C@@H](NC(=O)[C@H](Cc1ccccc1)NC(=O)[C@@H](NC(=O)CNC(=O)[C@H](CCC(=O)O)NC(=O)C(C)(C)NC(=O)[C@@H](N)Cc1ccc(O)cc1)[C@@H](C)O)[C@@H](C)O)C(C)C)C(=O)N[C@@H](C)C(=O)N[C@@H](Cc1c[nH]c2ccccc12)C(=O)N[C@@H](CC(C)C)C(=O)N[C@H](C(=O)N[C@@H](CCCCN)C(=O)NCC(N)=O)C(C)C [Compound 052-1] (H-Y[Aib]EGTFTSDYSEYMEKEAVREFIAWLVKG-NH2; N-terminus assumed)	2.5	0.57	36.8	
CC[C@H](C)[C@H](NC(=O)[C@H](Cc1ccccc1)NC(=O)[C@H](CCC(=O)O)NC(=O)[C@H](CCCNC(=N)N)NC(=O)[C@@H](NC(=O)[C@H](C)NC(=O)[C@H](CCC(=O)O)NC(=O)[C@H](CCCCN)NC(=O)[C@H](CCC(=O)O)NC(=O)[C@H](CCSC)NC(=O)[C@H](Cc1ccc(O)cc1)NC(=O)[C@@H](NC(=O)[C@H](CO)NC(=O)[C@H](Cc1ccc(O)cc1)NC(=O)[C@H](CC(=O)O)NC(=O)[C@H](CO)NC(=O)[C@@H](NC(=O)[C@H](Cc1ccccc1)NC(=O)[C@@H](NC(=O)CNC(=O)[C@H](CCC(=O)O)NC(=O)C(C)(C)NC(=O)[C@@H](N)Cc1ccc(O)cc1)[C@@H](C)O)[C@@H](C)O)[C@@H](C)CC)C(C)C)C(=O)N[C@@H](C)C(=O)N[C@@H](Cc1c[nH]c2ccccc12)C(=O)N[C@@H](CC(C)C)C(=O)N[C@H](C(=O)N[C@@H](CCCCN)C(=O)NCC(=O)NCC(=O)N1CCC[C@H]1C(=O)N[C@@H](CO)C(=O)N[C@@H](CO)C(=O)NCC(=O)N[C@@H](C)C(=O)N1CCC[C@H]1C(=O)N1CCC[C@H]1C(=O)N1CCC[C@H]1C(=O)N[C@@H](CO)C(=O)N[C@@H](CCCCNC(=O)CCCC[C@@H]1SC[C@@H]2NC(=O)N[C@@H]21)C(N)=O)C(C)C [Compound 074]	1.05	0.43	39.5	90.7
CC[C@H](C)[C@H](NC(=O)[C@H](Cc1ccccc1)NC(=O)[C@H](CCC(=O)O)NC(=O)[C@H](CCCNC(=N)N)NC(=O)[C@@H](NC(=O)[C@H](C)NC(=O)[C@H](CCC(=O)O)NC(=O)[C@H](CCCCN)NC(=O)[C@H](CCC(=O)O)NC(=O)[C@H](CCSC)NC(=O)[C@H](Cc1ccc(O)cc1)NC(=O)[C@@H](NC(=O)[C@H](CO)NC(=O)[C@H](Cc1ccc(O)cc1)NC(=O)[C@H](CC(=O)O)NC(=O)[C@H](CO)NC(=O)[C@@H](NC(=O)[C@H](Cc1ccccc1)NC(=O)[C@@H](NC(=O)CNC(=O)[C@H](CCC(=O)O)NC(=O)C(C)(C)NC(=O)[C@@H](N)Cc1ccc(O)cc1)[C@@H](C)O)[C@@H](C)O)[C@@H](C)CC)C(C)C)C(=O)N[C@@H](C)C(=O)N[C@@H](Cc1c[nH]c2ccccc12)C(=O)N[C@@H](CC(C)C)C(=O)N[C@H](C(=O)N[C@@H](CCCCN)C(=O)NCC(=O)N[C@@H](CCCCN)C(=O)N[C@@H](CCCCN)C(=O)N[C@@H](CCCCN)C(=O)N[C@@H](CCCCN)C(=O)N[C@@H](CCCCN)C(N)=O)C(C)C [Compound 060] (H-Y[Aib]EGTFTSDYSIYMEKEAVREFIAWLVKGKKKKK-NH2; N-terminus assumed)			8.4	36.8
